{
  "source": "patent US5849753A",
  "about": "“Pyridyl imidazole derivatives and processes for the preparation thereof” (Korea Research Institute of Chemical Technology, priority 1994, dated 1998)",
  "key": {"renal hypertensive rat [1]": {"test_system": "renal hypertensive rat", "assay": "Blood pressure lowering effect in renal hypertension (renal hypertensive rats, intravenous or oral)", "type": "in vivo, male Sprague-Dawley rats", "settings": "1 mg, read-out: Maxium Blood Pressure Lowering Effect(%)", "source_text": "(§1) To induce renal hypertension, left renal artery of 4 week-old male Sprague-Dawley rats(from The Korea Research Institute of Chemical Technology) was ligated. The rats were anesthetized with ether and the surgical region on the left abdomen of the rat was shaved, disinfected, and then incised about 1 cm vertically. The renal artery near abdominal aorta was isolated carefully from surrounding tissues and veins, and then ligated completely with a suture(4/0 sterile surgical silk). The muscular strata and skin of the surgical area were sutured with a suture(4/0 sterile surgical silk). The surgical region was disinfected to prevent infection and thereafter, 200 to 250 mg/Kg/day of cephazolin sodium was injected intramuscularly for 2 days. 6 to 8 days after the ligation, rats showing systolic pressure of more than 180 mmHg were selected for renal hypertension test. The blood pressure was determined by a tail-cuff method from the tail under unanesthetized condition(Gerold, M. et al., Arzneimittrel-Forsch, 18, 1285(1968)).\n(§2) Each of the compounds to be tested was administered intravenously or orally into the renal hypertensive rat. The blood pressure of the rats was determined by direct method(Chiu, A. T. et al., J. Pharmacol. Exp. Ther. 250, 867(1989)) using a catheter. The rats were anesthetized with ketamine hydrochloride(125 mg/kg, i.p.) and a catheter was filled with saline and inserted into a carotid artery and carotid vein. The surgical area was sutured with a metal clip. The rats were relaxed at least 3 hours and the catheter in the carotid artery was adapted to an isotec pressure transducer to determine their blood pressure and heart rate with a physiograph(Linearcorder WR3310). After the blood pressure was stabilized, the test compound was administered intravenously or orally. For intravenous administration, the administered volume and washing volume were 1.0 ml/Kg and 0.2 ml, respectively. The blood pressure and heart rate were measured in regular intervals up to 24 hours after the administration of the test compound and compared with those measured after the administration of the control compound Losartan.\n(§3) The test compound was dissolved in 0.05N KOH for intravenous administration and suspended in Tween 80 for oral administration."}, "unanesthetized dogs": {"test_system": "unanesthetized dogs", "assay": "Blood pressure lowering effect in unanesthetized dogs (furosemide treated)", "type": "in vivo, dog", "set-up": "Maximum blood pressure lowering effect in a dog: unit not given here", "settings": "oral; for Blood pressure variation with time: dogs, 1.0 mg", "description": "A number of dogs were fed freely in a feeding room and those weighing 7 to 12 kg in good health were selected regardless of their gender.\nThe test dogs were anesthetized with 30 mg/kg of pentobarbital sodium by intravenous injection and the left femoral artery and femoral vein were separated carefully. Silicone catheter, specially prepared and filled with saline treated with heparin(1,000 IU/ml), was cannulated into the blood vessels. After the surgery, the dogs were constrained to measure their blood pressure continuously with Gould 2000 physiograph adapted to a Grass P23 XL pressure transducer; and their heart rates were monitored with ECG/Biotacho amplifier. The dogs were tested at least 2 days after the surgery.\n10 mg/kg of furosemide was injected intramuscularly 18 hours(in case of intravenous injection, 2 hours) before the beginning of the test (administration of the test compound) to improve the activity of renin in blood plasma. After the injection of furosemide, neither food nor water was provided. The test compound was suspended in Tween 80 and administered in an amount of 20 mg/kg orally. The blood pressure and heart rate were measured up to 8 hours after the administration of each test compound.\nThe maximum blood pressure lowering effect of the present compounds and the control compounds were determined in different amounts of administration using the same method as […]"}, "renal hypertensive rat [2]": {"test_system": "renal hypertensive rat", "assay": "Blood pressure lowering effect on oral administration to rats at several doses", "type": "in vivo, male Sprague-Dawley rats", "source_text": "as §1, §2, §3\n(iii) Blood pressure lowering effect The present compounds, Losartan(Dup 753) and the Merck compound were administrated orally to rats in 10, 3, 1, 0.3 and 0.1 mg/kg under the same condition as in (ii) and the blood pressure lowering effect was determined."}, "renal hypertensive rats": {"test_system": "renal hypertensive rats", "assay": "Duration of action in renal hypertensive rats", "type": "in vivo, male Sprague-Dawley rats", "settings": "oral; for blood pressure lowering effect with time: 1 mg/kg", "source_text": "as §1, §2\nThe present(Example 28) and control(Merck) compounds were tested using the hypertensive rats of test 2(i). 1 mg or 3 mg/kg of each compound was administered orally and blood pressure lowering effect with time was determined to measure the duration of action of the compounds."}, "angiotensin II receptor": {"test_system": "angiotensin II receptor", "assay": "Angiotensin II Receptor Binding Assay ([3H] angiotensin II binding inhibition)", "settings": "[3H] angiotensin II ligand; 60 minutes, 25° C.; test concentration not given", "description": "In accordance with the procedure disclosed in Chiu, A. T. et al., Eur. J. Pharm., 157, 13(1981), a ligand marked with a radioisotope was reacted with an angiotensin II receptor and the reactant was filtered with a glass fiber to remove unreacted ligand. After washing the filter, the amount of the remaining isotope was measured to determine the binding activity of the ligand, as described below in detail.\nSprague-Dawley rats and Wistar rats of 250 to 350 g(from The Korea Research Institute of Chemical Technology) were tested and the test procedures were carried out at 4° C., unless otherwise specified. Adrenal gland was separated from the Sprague-Dawley rats(liver, in the case of Wistar rats) into cortex and medulla. The separated adrenal cortex and medulla were washed with a sucrose buffer solution (0.2M sucrose, 1 mM EDTA, 10 mM Tris, pH 7.2) and homogenized in the same buffer solution by using a Teflon pestle and a Brinkmann homogenizer. The homogenates were centrifuged at 3,000 Xg for 10 minutes to remove precipitates and further centrifuged at 12,000 Xg for 13 minutes. The final supernatants were centrifuged at 102,000 Xg for 1 hour to obtain precipitates, which were washed with a Tris buffer solution(50 mM Tris, 5 mM MgCl2, pH 7.2) and re-centrifuged at 102,000 Xg for 1 hour. The resulting precipitates were immediately processed at the following step or stored at -70° C.\nThe precipitates were suspended in a Tris buffer solution. The amount of protein was determined by using a Bio-Rad DC protein analyzing kit and the protein concentration was adjusted to the amounts of: 0.2 to 0.3 mg/ml(Sprague-Dawley rat: adrenal cortex), 1.5 to 2.0 mg/ml(Sprague-Dawleyrat: adrenal medulla), and 1.5 to 2.0 mg/ml(Wistar rat: liver). To the suspension, bovine serum albumin(BSA) was added to a concentration of 0.25 wt % and the resultant was immediately processed at the following step or stored at -70° C.\n(ii) Measurement of angiotensin II receptor binding capacity 50 μl(based on ligand) of [^3 H] angiotensin II(NEN, NET-446) and 10 μl of each of the test compounds with various concentrations were added to the buffer solution(50 mM Irris(pH 7.2), 5 mM MgCl2, 0.25% BSA) to adjust the final volume to be 0.5 ml. 100 μl of the receptor suspension was added thereto and the resulting solution was reacted for 60 minutes while stirring in a water bath at 25° C. 3 ml of cold buffer solution for analysis was added to cease the reaction. The isotope which was bound to the receptor was isolated from the resultant by using Brandel Cell Harvester System with Whatman glass fiber GF/C. After washing the filter, the radioactivity of the filter was determined by using a liquid scintillation counter. Binding inhibition(%) of the test compound was calculated as follows:\nBinding Inhibition(%)=[{(T--B)-(S--B)}/(T--B)]×100\nwherein T is cpm of the reaction product untreated with the test compound, S is cpm of the reaction product treated with the test compound, and B is cpm of blank test."}},
  "data": [
    {"smiles": "CCCCc1nc2c(C)c(-c3ccccc3)c(C(OC)OC)nc2n1Cc1ccc(-c2ccccc2-c2nnn[nH]2)cc1", "note": "[Example 28, 2-butyl-5-dimethoxymethyl-6-phenyl-7-methyl-3-[2'-(1H-tetrazol-5-yl)-biphenyl-4-ylmethyl]-3H-imidazo[4,5-b]pyridine]", "values": [
      {"measurement": "change in vivo at 1 mg", "setting": "renal hypertensive rat [1]", "result": -47, "unit": "%"},
      {"measurement": "Maximum blood pressure lowering effect in a dog", "setting": "unanesthetized dogs; 0.1 mg/kg", "result": 9},
      {"measurement": "Maximum blood pressure lowering effect in a dog", "setting": "unanesthetized dogs; 0.3 mg/kg", "result": 18},
      {"measurement": "Maximum blood pressure lowering effect in a dog", "setting": "unanesthetized dogs; 1 mg/kg", "result": 33},
      {"measurement": "Blood pressure variation with time", "setting": "unanesthetized dogs; 0.5 hr", "result": -3.3, "unit": "%"},
      {"measurement": "Blood pressure variation with time", "setting": "unanesthetized dogs; 1 hr", "result": -18.9, "unit": "%"},
      {"measurement": "Blood pressure variation with time", "setting": "unanesthetized dogs; 2 hr", "result": -27.7, "unit": "%"},
      {"measurement": "Blood pressure variation with time", "setting": "unanesthetized dogs; 4 hr", "result": -33.3, "unit": "%"},
      {"measurement": "Blood pressure variation with time", "setting": "unanesthetized dogs; 6 hr", "result": -29.5, "unit": "%"},
      {"measurement": "Blood pressure variation with time", "setting": "unanesthetized dogs; 8 hr", "result": -27.1, "unit": "%"},
      {"measurement": "blood pressure lowering effect", "setting": "renal hypertensive rat [2]; 0.3 mg/kg", "result": 13, "unit": "%"},
      {"measurement": "blood pressure lowering effect", "setting": "renal hypertensive rat [2]; 1 mg/kg", "result": 47, "unit": "%"},
      {"measurement": "blood pressure lowering effect compared with the Merck compound", "setting": "renal hypertensive rat [2]; Table 2", "result": "far superior effect"},
      {"measurement": "duration of action compared with the Merck compound", "setting": "renal hypertensive rats; 1 mg/kg versus Merck compound 3 mg/kg", "result": "far longer duration of action"},
      {"measurement": "blood pressure lowering effect with time", "setting": "renal hypertensive rats; 0 min", "result": 0, "unit": "%"},
      {"measurement": "blood pressure lowering effect with time", "setting": "renal hypertensive rats; 10 min", "result": -16, "unit": "%"},
      {"measurement": "blood pressure lowering effect with time", "setting": "renal hypertensive rats; 20 min", "result": -17, "unit": "%"},
      {"measurement": "blood pressure lowering effect with time", "setting": "renal hypertensive rats; 30 min", "result": -18, "unit": "%"},
      {"measurement": "blood pressure lowering effect with time", "setting": "renal hypertensive rats; 60 min", "result": -21, "unit": "%"},
      {"measurement": "blood pressure lowering effect with time", "setting": "renal hypertensive rats; 90 min", "result": -34, "unit": "%"},
      {"measurement": "blood pressure lowering effect with time", "setting": "renal hypertensive rats; 120 min", "result": -33, "unit": "%"},
      {"measurement": "blood pressure lowering effect with time", "setting": "renal hypertensive rats; 240 min", "result": -46, "unit": "%"},
      {"measurement": "blood pressure lowering effect with time", "setting": "renal hypertensive rats; 360 min", "result": -47, "unit": "%"},
      {"measurement": "blood pressure lowering effect with time", "setting": "renal hypertensive rats; 1320 min", "result": -25, "unit": "%"},
      {"measurement": "blood pressure lowering effect with time", "setting": "renal hypertensive rats; 1440 min", "result": -28, "unit": "%"},
      {"measurement": "Binding Inhibition(%)", "setting": "angiotensin II receptor", "result": 50.5, "unit": "%"}
    ]}
  ]
}
